Assays:
Type in all cases: cell-based
[1] = test system: Coriolus versicolor; assay: Minimum inhibitory concentration by the agar dilution method; conditions: potato dextrose agar, 25° C., 5 days
Excerpt: (§1) Assay of minimum inhibitory concentration by the agar dilution method.
(§2) According to the agar dilution method, on sterilized media (potato dextrose agar medium; potato extract powder 0.4%, glucose 2%, agar 1.5%) prepared to contain certain concentrations of a test sample, flora (about 4 mm in diameter) of wood rotting fungi, Coriolus versicolor and Tyromyces palustris, which has been cultured previously on the same kind of medium, were inoculated.
(§3) Whether there is any potentiation or not has been described in Applied Microbiology 9, 538-541 (1961) by F. C. Kull et al. The assay was carried out according to the method usually employed.

[2] = test system: Tyromyces palustris; assay: as above; conditions: potato dextrose agar, 25° C., 5 days
Excerpt: as §1, §2, §3

[3] = test system: Serpula lacrymans; assay: Wood preservation test JIS A-9201 (1991): impregnated Sugi sapwood, weathered, forcedly decayed for 12 weeks; conditions: weathering 10 cycles, 20° C., mean of 9 samples
Description: (1) According to the test method for wood preservation described in the Japan Industrial Standards [JIS A-9201 (1991)], each of the test compounds was dissolved to a defined concentration in methanol. The solution was impregnated under a reduced pressure into a Sugi (Japanese cedar) sapwood (2×2×1) cm and then air-dried. Weathering test was repeated 10 times in which one cycle of the treatment was stirring in water for 8 hours, and then heating for 16 hours at 60° C. The test material was placed on the flora of Serpula lacrymans which had been previously grown on a quartz sand medium (malt extract 2%, glucose 1%, peptone 0.3% and yeast 0.2%), and forcedly decayed at 20° C. for 12 weeks. From the difference between the dry weight of the test material before the test and that after test, the degree of decrease in weight was obtained. […] The test was carried out by use of 9 samples for each condition, and the values shown in Table 2 are the mean values calculated from 9 samples.

[4] = test system: Coriolus versicolor; assay: Wood preservative efficacy on impregnated Sugi sapwood: hyphal growth and maximum crushing strength; set-up: key: +: No hyphal growth was observed on the test material, and no difference was found in the maximum crushing strength from the healthy wood sample.; ±: A little hyphal growth was observed on the test material, or a little decrease was found in the maximum crushing strength.; −: Hyphal growth was observed on the test material, or clear decrease was found in the maximum crushing strength; conditions: 0.1 w/v % methanol solution impregnated; weathering twice; 26° C., 3 weeks
Description: (§4) Weathering test was repeated twice in which one cycle of the treatment was washing (about 2 liter per minute supply) with water for 5 hours, and then heating for 19 hours at 60° C. After dry air sterilization, the test samples were prepared. The test materials were placed on the flora of Coriolus versicolor which is a lignin-decomposing fungus, and of Tryomyces palustris which is a cellulose-decomposing fungus, and both of which are designated fungal species for assay of wood preservating effect. Both fungi had been previously grown on an agar medium (malt extract 2%, glucose 1% and peptone 0.5%). After the wood samples were forcedly deteriorated at 26° C. for 3 weeks, the effectiveness was determined from the degree of hyphal growth on the test material and the presence or absence of lowered maximum crushing strength. […] The wood preventive efficacy was judged by the following criteria. +: No hyphal growth was observed on the test material, and no difference was found in the maximum crushing strength from the healthy wood sample. ±: A little hyphal growth was observed on the test material, or a little decrease was found in the maximum crushing strength. −: Hyphal growth was observed on the test material, or clear decrease was found in the maximum crushing strength.

[5] = test system: Tyromyces palustris; assay: as above; set-up: key: +: No hyphal growth was observed on the test material, and no difference was found in the maximum crushing strength from the healthy wood sample.; ±: A little hyphal growth was observed on the test material, or a little decrease was found in the maximum crushing strength.; −: Hyphal growth was observed on the test material, or clear decrease was found in the maximum crushing strength; conditions: 0.1 w/v % methanol solution impregnated; weathering twice; 26° C., 3 weeks
Description: as §4

[6] = impregnant concentration 0.005 % in methanol
[7] = impregnant concentration 0.01 % in methanol

| SMILES | MIC (ppm), single agent [1] [ppm] | MIC (ppm), single agent [2] [ppm] | Mean weight decrease by decay (%) [3, 6] [%] | Mean weight decrease by decay (%) [3, 7] [%] | Wood preventive efficacy, Coriolus versicolor [4] | Wood preventive efficacy, Tyromyces palustris [5] |
| --- | --- | --- | --- | --- | --- | --- |
| CCCCNC(=O)OCC#CI [B] | 25 | 2.5 |  |  |  |  |
| Clc1ccc(OCOCC#CI)cc1 [Control compound 1, 4-Chlorophenyl-3-iodopropargylformal, reference compound] | 6 | 2 | 18.6 | 9.7 |  |  |
| CCOC(=O)OCC(I)=C(Br)I [Control compound 2, 3-Bromo-2,3-diiodo-2-propenylethylcarbonate, reference compound] | 15 | 25 |  |  | + | + |
| CC(=O)Nc1cccc(NC(=O)c2cc(C)oc2C)c1 [Example 1, 2,5-Dimethylfuran-3-carboxy(3-acetylaminoanilide)] |  |  |  |  | ± | − |
| CNC(=O)c1cccc(NC(=O)c2cc(C)oc2C)c1 [Example 2, 2.5-Dimethylfuran-3-carboxy[3-(N-methylcarbamoyl)anilide]] |  |  |  |  | − | − |
| Cc1cc(C(=O)Nc2cccc(C(=O)N3CCCCC3)c2)c(C)o1 [Example 3, 2,5-Dimethylfuran-3-carboxy[3-(1-piperidylcarbonyl)anilide]] |  |  |  |  | − | − |
| Cc1cc(C(=O)Nc2cccc(C(=O)Nc3ccccc3)c2)c(C)o1 [Example 4, 2.5-Dimethylfuran-3-carboxyl[3-(N-phenylcarbamoyl)anilide]] |  |  |  |  | − | − |
| Cc1cc(C(=O)Nc2cccc(C(=O)OC(C)(C)C)c2)c(C)o1 [Example 5, 2,5-Dimethylfuran-3-carboxy(3-tert-butoxycarbonylanilide)] |  |  |  |  | − | − |
| COC(=O)c1cccc(NC(=O)c2cc(C)oc2C)c1 [Example 6, 2,5-Dimethylfuran-3-carboxy(3-methoxycarbonylanilide)] |  |  |  |  | + | + |
| Cc1cc(C(=O)Nc2cccc(C(=O)c3ccccc3)c2)c(C)o1 [Example 7, 2,5-Dimethylfuran-3-carboxy(3-benzoylanilide)] |  |  |  |  | + | − |
| Cc1cc(C(=O)Nc2cccc(NC(=O)c3ccccc3)c2)c(C)o1 [Example 8, 2,5-Dimethylfuran-3-carboxy(3-benzoylaminoanilide)] |  |  |  |  | ± | − |
| CCCCC(=O)Nc1cccc(NC(=O)c2cc(C)oc2C)c1 [Example 9, 2,5-Dimethylfuran-3-carboxy(3-valerylaminoanilide)] |  |  |  |  | − | − |
| Cc1cc(C(=O)Nc2cccc(NC(=O)C3CCCCC3)c2)c(C)o1 [Example 10, 2,5-Dimethylfuran-3-carboxy(3-cyclohexylcarbonylaminoanilide)] |  |  |  |  | + | − |
| COCc1cccc(NC(=O)c2cc(C)oc2C)c1 [Example 11, 2,5-Dimethylfuran-3-carboxy(3-methoxymethylanilide)] |  |  |  |  | + | ± |
| CCOCc1cccc(NC(=O)c2cc(C)oc2C)c1 [Example 12, 2,5-Dimethylfuran-3-carboxy(3-ethoxymethylanilide)] |  |  |  |  | ± | ± |
| Cc1cc(C(=O)Nc2cccc(COC(C)C)c2)c(C)o1 [Example 13, 2,5-Dimethylfuran-3-carboxy(3-isopropyloxymethylanilide)] |  |  |  |  | + | + |
| COc1ccc(Cc2cccc(NC(=O)c3cc(C)oc3C)c2)cc1 [Example 14, 2,5-Dimethylfuran-3-carboxy[3-(4-methoxybenzyl)anilide]] |  |  |  |  | + | + |
| COC(=O)C=Cc1cccc(NC(=O)c2cc(C)oc2C)c1 [Example 15, 2,5-Dimethylfuran-3-carboxy[3-(2-methoxycarbonylvinyl)anilide]] |  |  |  |  | + | − |
| CCc1cccc(NC(=O)c2cc(C)oc2C)c1 [Example 20, 2,5-Dimethylfuran-3-carboxy(3-ethylanilide)] | 2.5 | 200 | 0.1 | 0 | + | + |
| Cc1cc(C(=O)Nc2cccc(C(C)C)c2)c(C)o1 [Example 21, 2,5-Dimethylfuran-3-carboxy(3-isopropylanilide)] | 10.0 | 200 | 0 | 0 | + | + |
| CCCCCCc1cccc(NC(=O)c2cc(C)oc2C)c1 [Example 23, 2,5-Dimethylfuran-3-carboxy(3-hexylanilide)] |  |  |  |  | + | + |
| CCCCc1cccc(NC(=O)c2cc(C)oc2C)c1 [Example 24, 2,5-Dimethylfuran-3-carboxy(3-butylanilide)] |  |  |  |  | + | + |
| CCC(C)c1cccc(NC(=O)c2cc(C)oc2C)c1 (stereo not drawn) [Example 25, 2,5-Dimethylfuran-3-carboxy(3-sec-butylanilide)] |  |  |  |  | + | + |
| CCCCCc1cccc(NC(=O)c2cc(C)oc2C)c1 [Example 26, 2,5-Dimethylfuran-3-carboxy(3-pentylanilide)] |  |  |  |  | + | + |
